“And” between values parts separate entries of the source, which are not always exact repeats. Equal values may be shown once. Where a name gives a salt, the structure may show the parent alone.
Legend:
Assay type in all cases: in vivo, human
[1] = test system: Overweight and Obese Adults; experiment: Dose-ranging phase 1 clinical study (NCT02475317), multiple oral doses for 7 days; settings: for treatment-emergent adverse events: all doses, 7 days; for Mean serum 7αC4: change from baseline to day 7, greatest change at maralixibat 50 mg BID; for Mean sBA levels: versus baseline, day 7
[2] = test system: Children with Progressive Familial Intrahepatic Cholestasis; experiment: INDIGO phase 2 open-label efficacy and safety study of maralixibat
Text: The HRQoL used was the […] QUALITY OF LIFE INVENTORY (PedsQL).

[3] = test system: Participants with Primary Sclerosing Cholangitis (PSC); experiment: CAMEO 14-week single-arm open-label phase 2a proof-of-concept study
Procedure: Participants were adults aged 18-80 years with a diagnosis of PSC. PSC diagnosis included a documented history of alkaline phosphatase (ALP) levels greater than 1.5 times above the upper limit of normal, biliary obstruction, and histological findings consistent with PSC diagnosis (if previously biopsied). The study enrolled 27 adults.
Efficacy was assessed by measuring at baseline and throughout the study sBA concentration, serum 7αC4 concentration (a marker of de novo bile acid synthesis), serum aoutotaxin concentration, LDL-C concentration, serum total cholesterol concentration, serum liver enzyme concentrations, and pruritus severity. Pruritus severity was determined by calculating Adult Itch Reported Outcome (ITCHRO) weekly sum scores and average daily scores (mean score over a 7-day period). Participants self-reported the ITCHRO daily on a scale 0-10 (0=no pruritus; 10=most severe pruritus).
Outcomes were assessed in the overall study population and in subgroups of participants (A) with any pruritus at baseline or (B) with an ITCHRO average daily score ≥4 out of 10 at baseline. Efficacy endpoints were based on change from baseline to week 14 or early termination (ET) and were analyzed using paired t-tests or Wilcoxon signed rank tests.

[4] = test system: Children with Alagille Syndrome; experiment: ICONIC phase 2b randomized placebo-controlled drug-withdrawal study with long-term extension
Procedure: Children aged 1-18 years with a diagnosis of ALGS and evidence of cholestasis were eligible to enroll in the ICONIC clinical study, see Tables 12-14. During a long-term extension, participants with sBA levels above the upper limit of normal and/or an ITCHRO(OBS) score >1.5 were eligible for the 400 μg/kg BID dose (all participants received the 400 μg/kg BID dose). Inclusion criteria for the ICONIC study included having cholestasis, which was defined as at least one of 1) sBA concentration (total sBA) >3× the upper limit of normal, 2) serum conjugated bilirubin concentration >1 mg/dL, 3) fat-soluble vitamin deficiency not otherwise explained, 4) serum gamma-glutamyl transferase concentration >3× the upper limit of normal, and 3) intractable pruritus explainable only by liver disease. Inclusion criteria also included having significant pruritus, which was defined as an average daily score of >2 on the ITCHRO(OBS) scale for 2 consecutive weeks (0=no pruritus; 4=most severe pruritus). Exclusion criteria included having surgically disrupted enterohepatic circulation, a liver transplant, decompensated cirrhosis, or having any liver disease other than ALGS.
sBA responders were defined as those patients achieving ≥50% reduction from baseline in sBA at week 12 or 18. ITCHRO responders were defined as those patients achieving at least a 1-point reduction from Baseline in weekly morning ITCHRO(OBS) score at week 12 or 18.
In the open label extension, the effect of higher doses was explored by increasing dosage to a maximum of 400 μg/kg BID in eligible participants.
Efficacy assessments were based on changes from baseline in sBA concentration, weekly average ITCHRO(OBS) scores (0, none; 4, most severe), CSS score (0, none; 4 most severe), and Clinician Xanthoma Scale score (0, none; 4, disabling). […] During the long-term extension, efficacy assessments were conducted every 12 weeks. Serum total cholesterol and serum 7αC4 concentration were also monitored during the ICONIC clinical study, among other measures.
sBA were measured using a fully validated liquid chromatography-electrospray ionization-mass electrospray (LC-ESI-MS) method using stable-isotope dilution analysis to measure serum concentrations of principal bile acids (cholic, chenodeoxycholic, ursodeoxycholic, deoxycholic acid, lithocholic, and their corresponding glycine and taurine conjugates). Serum samples were analyzed in the Division of Pathology and Laboratory Medicine, Cincinnati Children's Hospital Medical Center according to SOP #PATH.CMS.1033. Calibration standards of individual bile acids were in the range of 50-25,000 ng/mL and Quality Control samples were prepared at concentrations of 100, 500, 1000, 2500, and 20000 ng/mL. The intra- and inter-assay imprecision of the method for individual bile acids measured was within the accepted GLP quality assurance guidelines of <15% coefficient of variance for these QC samples. The lower limit of quantification of the assay was set at 100 ng/mL and the imprecision at this concentration was <20%. The limit of detection of the assay was 5 ng/mL. Total sBA is represented by the sum of the individual bile acid species measured.

CCCC[C@]1(CC)CS(=O)(=O)c2ccc(N(C)C)cc2[C@@H](c2cccc(NC(=O)N[C@@H]3O[C@H](COS(=O)(=O)O)[C@@H](O)[C@H](OCc4ccccc4)[C@H]3O)c2)[C@H]1O (stereo in doubt) [volixibat, (2R,3R,4S,5R,6R)-4-benzyloxy-6-{3-[3-((3 S,4R,5R)-3-butyl-7-dimethylamino-3-ethyl-4-hydroxy-1,1-dioxo-2,3,4,5-tetrahydro-1H-benzo[b]thiepin-5-yl)-phenyl]-ureido}-3,5-dihydroxy-tetrahydro-pyran-2-ylmethyl) hydrogen sulfate]
treatment-emergent adverse events [1]: All treatment-emergent adverse events were mild, and none were serious
Mean serum 7αC4 [1]: increased
Mean sBA levels [1]: not elevated

CCCCC1(CCCC)CS(=O)(=O)c2ccc(N(C)C)cc2[C@@H](c2ccc(OCc3ccc(C[N+]45CCN(CC4)CC5)cc3)cc2)[C@H]1O.[Cl-] [maralixibat]
multi-parameter response ([2]; all PFIC 1 patients and all patients harboring a truncating ABCB11 mutation): not multi-parameter responders
serum ALT, AST, and bilirubin concentrations over time ([2]; all low-dose responders, e.g. within 2-6 months of first administration): normalized or only mildly elevated
height Z-score ([2]; high dose responder, following treatment response on sBA): increase in height Z-score
Response ([2]; individual PFIC 2 participants, one line each, max dose 280 or 560 μg/kg/day (Table 6), No reponse [sic] / Rapid complete response / Good response / No response until 560 reached): Rapid (4×) and No (19×) and Good
cholestasis markers after dose increase ([2]; low-dose responder losing response in long-term extension, raised to 280 μg/kg BID at between 640 and 730 days): sBA concentration decreased, severity of pruritus decreased, serum 7αC4 concentration increased, and 7αC4:sBA ratio increased
growth (height Z-score change relative to baseline) ([2]; low-dose responders (FIG. 4)): improved growth relative to baseline
7αC4 concentrations at 48 weeks ([2]; low-dose responders (range, 3-43)): 14 × baseline
multi-parameter responders ([2]; mild PFIC 2 patients, 280 μg/kg QD): 1 of 7
responders only after higher dose (high-dose responder) ([2]; moderate PFIC 2 patients, 280 μg/kg twice daily): 1 of 12
responders by week 48 ([2]; moderate PFIC 2 patients, 280 μg/kg/day): 5 of 12
growth (height Z-score change relative to baseline) ([2]; non-responders (FIG. 4)): did not
7αC4 concentrations at 48 weeks ([2]; non-responders (range, 0.5-6)): 1.8 × baseline
duration of maintained response ([2]; responders, long-term extension): for over a year and for up to or beyond 5 years
treatment-emergent adverse events [1]: All treatment-emergent adverse events were mild, and none were serious
Mean serum 7αC4 [1]: increased
Mean sBA levels [1]: not elevated
tolerability ([3]; adults with PSC, up to 10 mg/day, 14 weeks): well tolerated
Changes in serum total bilirubin, alanine aminotransferase, aspartate aminotransferase, and alkaline phosphatase concentrations ([3]; all participants): not statistically significant
participants with worsening of pruritus by >1 point ([3]; baseline to week 14): No participants
participants with ITCHRO average daily score improved by >1 point ([3]; count of all participants): 8 out of 27
participants with ITCHRO average daily score improved by >3 points ([3]; count of all participants): 6 of 27
Mean conjugated bilirubin levels, increase ([3]; overall population): 0.19 mg/dL
conjugated bilirubin levels ([3]; participants with ITCHRO daily score ≥0 at baseline (so in the source)): no significant change
autotaxin levels ([3]; participants with ITCHRO daily score ≥4 at baseline): significant reductions
weight Z-scores ([4]; 400 μg/kg QD then 400 μg/kg BID (FIGS. 35-36)): dose-dependent increase in weight Z-scores
Change in ItchRO from Baseline to Week 48 ([4]; ITCHRO(OBS) weekly morning average score, individual subjects (Table 18)): −0.12 and 0.49 and −0.45 and 0.00 and −1.86 (2×) and −1.71 (2×) and −1.00 (2×) and −1.29 and −1.67 and −1.14 and −1.03 and −2.50 and −2.71 and −3.50 and −0.17 and −1.43 and −0.83
study days reported as minimal or no pruritus (ITCHRO(OBS)<1) ([4]; across participants, after 98 weeks): over 89%
Clinician xanthoma scale scores ([4]; all participants, by week 48 (p<0.01)): improved significantly
quality of life ([4]; core study and extension): improved quality of life
PedsQL Multidimensional Fatigue Scale scores ([4]; core study and extension (p<0.01)): Improvements were seen
tolerability ([4]; core study and extension, doses up to 800 μg/kg/day, up to 4 years): generally well tolerated
ItchRO(Obs) Weekly Morning Average Score, Change from Baseline to Week 48 ([4]; individual subjects, one line each (Table 19)): −1.86 (2×) and −1.71 (2×) and −1.00 (2×) and −1.29 and −1.67 and −1.14 and −1.03 and −1.43
growth after dose increase ([4]; patients (N=15) given 400 μg/kg BID after 400 μg/kg QD for more than about 40 weeks): further increase in growth from baseline
sBA responders at Week 48 (N = 28), % ([4]; sBA Response Definition Normalization (<8.5 μmol/L)): (3.6%)
sBA responders at Week 48 (N = 28), % ([4]; sBA Response Definition ≥80% Reduction): (14.3%)
sBA responders at Week 48 (N = 28), % ([4]; sBA Response Definition ≥90% Reduction): (3.6%)

Reference: patent publication US20220152022A1
